Data as given in US20240051930A1, “HETEROAROMATIC SPERMIDINE ANALOGUES AND THEIR ANTICANCER ACTIVITY” (FLORATEK PHARMA S.A., priority 2021, published 2024).

Key:
Assay type in all cases: cell-based
A673 cells = test: CellTiter-Glow cell viability, Ewings sarcoma A673; conditions: Homo sapiens, 72 h, read-out: % Inh @2 μM A673
Protocol: (§1) Antitumor activity of the compounds and cisplatin as a positive control was assessed by using CellTiter-Glow® Luminescent Cell Viability assay (Promega #G7572) according to the manufacturer's instructions. The compounds were tested at 2 concentrations, 2 and 20 μM, in triplicate well conditions.
(§2) Tumor cells were grown at 37° C. in a humidified atmosphere with 5% CO2 in RPMI 1640 or DMEM medium, supplemented with 10% (v/v) fetal calf serum and 50 μg/ml gentamicin for up to 20 passages, and were passaged once or twice weekly. Cells were harvested using TrypLE or PBS buffer containing 1 mM EDTA, and the percentage of viable cells is determined using a cell counter.
(§3) Cells were harvested from exponential phase cultures, counted and plated in 96 well flat-bottom microtiter plates at a cell density depending on the cell line's growth rate (4,000-20,000 cells/well depending on the cell line's growth rate, up to 60,000 for hematological cancer cell lines) in RPMI 1640 or DMEM medium supplemented with 10% (v/v) fetal calf serum and 50 μg/ml gentamicin (140 μl/well). Cultures were incubated at 37° C. and 5% CO2 in a humidified atmosphere. After 24 h, 10 μl of test compounds or control medium are added and left on the cells for another 72 h.
(§4) Compounds were serially diluted in DMSO, transferred in cell culture medium, and added to the assay plates. The DMSO concentration was kept constant at <0.2% v/v across the assay plate. Viability of cells was quantified by CellTiter-Glow® Luminescent Cell Viability assay (Promega). Luminescence was measured with the microplate luminometer (EnVision Multi Label Reader).

SK-Mel-5 cell line = test: CellTiter-Glow cell viability, melanoma SK-Mel-5; conditions: for inhibition at 2 µM: Homo sapiens, SK-MEL-5, 72 h, read-out: % Inh @2 μM SK-Mel-5
Protocol: as §1, §2, §3, §4

NAWALMA cells = test: CellTiter-Glow cell viability, lymphoma NAWALMA; conditions: 72 h, read-out: % Inh @2 μM NAWALMA
Protocol: as §1, §2, §3, §4

A2058 cells = test: CellTiter-Glow cell viability, melanoma A2058; conditions: for inhibition at 2 µM: Homo sapiens, A2058, 72 h, read-out: % Inh @2 μM A2058
Protocol: as §1, §2, §3, §4

Daudi cells = test: CellTiter-Glow cell viability, lymphoma Daudi; conditions: Homo sapiens, 72 h, read-out: % Inh @2 μM Daudi
Protocol: as §1, §2, §3, §4

NCI-H292 cells = test: CellTiter-Glow cell viability, lung carcinoma NCI-H292; conditions: Homo sapiens, 72 h, read-out: % Inh @2 μM NCI-H292
Protocol: as §1, §2, §3, §4

A375 cells = test: CellTiter-Glow cell viability, melanoma A375; conditions: for inhibition at 2 µM: Homo sapiens, A-375, 72 h, read-out: % Inh @2 μM A375
Protocol: as §1, §2, §3, §4

SK-N-SH cells = test: CellTiter-Glow cell viability, brain carcinoma SK-N-SH; conditions: Homo sapiens, 72 h, read-out: % Inh @2 μM SK-N-SH
Protocol: as §1, §2, §3, §4

U937 cell line = test: CellTiter-Glow cell viability, leukemia U937; conditions: Homo sapiens, U-937, 72 h, read-out: growth inhibition of U937 cell line
Protocol: as §1, §2
as §3, with “Cultures were incubated at 37° C. and 5% CO2 in a humidified atmosphere. After 24 h, 10 μl of test compounds or control medium are added and left on the cells for another 72 h.” left out
(§5) Compounds were serially diluted in DMSO, transferred in cell culture medium, and added to the assay plates. […] Viability of cells was quantified by CellTiter-Glow® Luminescent Cell Viability assay (Promega). Luminescence was measured with the microplate luminometer (EnVision Multi Label Reader).

SH-SY-5Y cells = test: CellTiter-Glow cell viability, brain carcinoma SH-SY-5Y; conditions: Homo sapiens, SH-SY5Y, 72 h, read-out: % Inh @2 μM SH-SY-5Y
Protocol: as §1, §2
as §3, with “Cultures were incubated at 37° C. and 5% CO2 in a humidified atmosphere. After 24 h, 10 μl of test compounds or control medium are added and left on the cells for another 72 h.” left out
as §5

HCT116 cells = test: CellTiter-Glow cell viability, colon carcinoma HCT116; conditions: Homo sapiens, HCT-116, 72 h, read-out: % Inh @2 μM HCT116
Protocol: as §1, §2
as §3, with “Cultures were incubated at 37° C. and 5% CO2 in a humidified atmosphere. After 24 h, 10 μl of test compounds or control medium are added and left on the cells for another 72 h.” left out
as §5

DMS114 cells = test: CellTiter-Glow cell viability, lung carcinoma DMS114; conditions: Homo sapiens, DMS-114, 72 h, read-out: growth inhibition of lung carcinoma cells DMS114
Protocol: as §1, §2
as §3, with “Cultures were incubated at 37° C. and 5% CO2 in a humidified atmosphere. After 24 h, 10 μl of test compounds or control medium are added and left on the cells for another 72 h.” left out
as §5

K562 cells = test: CellTiter-Glow cell viability, leukemia K562; conditions: Homo sapiens, 72 h, read-out: % Inh @2 μM K562
Protocol: as §1, §2
as §3, with “Cultures were incubated at 37° C. and 5% CO2 in a humidified atmosphere. After 24 h, 10 μl of test compounds or control medium are added and left on the cells for another 72 h.” left out
as §5

MeWo cell line = test: CellTiter-Glow cell viability, melanoma MeWo; conditions: Homo sapiens, 72 h, read-out: growth inhibition of MeWo cell line
Protocol: as §1, §2
as §3, with “Cultures were incubated at 37° C. and 5% CO2 in a humidified atmosphere. After 24 h, 10 μl of test compounds or control medium are added and left on the cells for another 72 h.” left out
as §5

H118MG cells = test: CellTiter-Glow cell viability, brain carcinoma cells H118MG; conditions: 72 h, read-out: growth inhibition of brain carcinoma cells H118MG
Protocol: as §1, §2
as §3, with “Cultures were incubated at 37° C. and 5% CO2 in a humidified atmosphere. After 24 h, 10 μl of test compounds or control medium are added and left on the cells for another 72 h.” left out
as §5

SMILES | inhibition at 2 µM (A673 cells) [%] | inhibition at 2 µM (SK-Mel-5 cell line) [%] | inhibition at 2 µM (NAWALMA cells) [%] | inhibition at 2 µM (A2058 cells) [%] | inhibition at 2 µM (Daudi cells) [%] | inhibition at 2 µM (NCI-H292 cells) [%] | inhibition at 2 µM (A375 cells) [%] | inhibition at 2 µM (SK-N-SH cells) [%] | also measured
COc1c(-c2ccc(N(C)CCCCN(C)CCCN3CCCCC3)cc2)oc2c(OC)c(O)ccc2c1=O [SND459] | 63.5 | – | – | – | – | – | – | – | –
COc1c(O)ccc2c(=O)c(O)c(-c3ccc(N(C)CCCCNCCCNCCCCN)cc3)oc12 [SND445] | 61.8 | – | – | – | – | – | – | – | –
COc1c(O)ccc2c(=O)c(O)c(-c3ccc(N(C)CCCCN(C)CCN4CCN(Cc5ccccc5)CC4)cc3)oc12 [SND438] | 55.6 | 61.1 | 65.3 | 72.1 | 50 | 51.9 | 55.5 | 53.5 | % Inh @2 μM SK-Mel-5 (SK-Mel-5 cell line; 72 h): 50.7%; % Inh @2 μM A2058 (A2058 cells; 72 h): 78.2%; % Inh @2 μM A375 (A375 cells; 72 h): 60.8%
COc1c(O)ccc2c(=O)c(O)c(-c3ccc(N(C)CCCCNCCCN)cc3)oc12 [SND446] | – | 56.5 | 75.5 | – | 82 | – | – | – | inhibition at 2 µM (U937 cell line): 58%; inhibition at 2 µM (SH-SY-5Y cells): 55.8%
COc1c(O)ccc2c(=O)c(O)c(-c3ccc(N(C)CCCCN(C)CCC4CCN(Cc5ccccc5)CC4)cc3)oc12 [SND437] | 99.6 | 99.7 | 80.8 | 97.3 | 59.4 | 71.6 | 69.5 | 96.4 | inhibition at 2 µM (HCT116 cells): 83.7%; inhibition at 2 µM (DMS114 cells): 98%; inhibition at 2 µM (K562 cells): 65.3%; inhibition at 2 µM (MeWo cell line): 93.2%; inhibition at 2 µM (H118MG cells): 97.6%
COc1c(O)ccc2c(=O)c(O)c(-c3ccc(N(C)CCCCN(C)CCCN4CCCCC4)cc3)oc12 [SND439] | 80.8 | – | 73.4 | – | 57.4 | 62.6 | – | 57.5 | –
